# Measured values published in patent US9809853B2, “Calcium-activated chloride channel involved in human sweat formation” (BRAIN Biotechnology Research and Information Network AG, priority 2012, dated 2017).
# Target: T1, TMEM16A(ac) (Homo sapiens, UniProt Q5XXA6, DEL476-501)
# T1 construct: expressed in transfected cells
# T1 sequence (Q5XXA6 with tags, fused parts or gaps DEL476-501): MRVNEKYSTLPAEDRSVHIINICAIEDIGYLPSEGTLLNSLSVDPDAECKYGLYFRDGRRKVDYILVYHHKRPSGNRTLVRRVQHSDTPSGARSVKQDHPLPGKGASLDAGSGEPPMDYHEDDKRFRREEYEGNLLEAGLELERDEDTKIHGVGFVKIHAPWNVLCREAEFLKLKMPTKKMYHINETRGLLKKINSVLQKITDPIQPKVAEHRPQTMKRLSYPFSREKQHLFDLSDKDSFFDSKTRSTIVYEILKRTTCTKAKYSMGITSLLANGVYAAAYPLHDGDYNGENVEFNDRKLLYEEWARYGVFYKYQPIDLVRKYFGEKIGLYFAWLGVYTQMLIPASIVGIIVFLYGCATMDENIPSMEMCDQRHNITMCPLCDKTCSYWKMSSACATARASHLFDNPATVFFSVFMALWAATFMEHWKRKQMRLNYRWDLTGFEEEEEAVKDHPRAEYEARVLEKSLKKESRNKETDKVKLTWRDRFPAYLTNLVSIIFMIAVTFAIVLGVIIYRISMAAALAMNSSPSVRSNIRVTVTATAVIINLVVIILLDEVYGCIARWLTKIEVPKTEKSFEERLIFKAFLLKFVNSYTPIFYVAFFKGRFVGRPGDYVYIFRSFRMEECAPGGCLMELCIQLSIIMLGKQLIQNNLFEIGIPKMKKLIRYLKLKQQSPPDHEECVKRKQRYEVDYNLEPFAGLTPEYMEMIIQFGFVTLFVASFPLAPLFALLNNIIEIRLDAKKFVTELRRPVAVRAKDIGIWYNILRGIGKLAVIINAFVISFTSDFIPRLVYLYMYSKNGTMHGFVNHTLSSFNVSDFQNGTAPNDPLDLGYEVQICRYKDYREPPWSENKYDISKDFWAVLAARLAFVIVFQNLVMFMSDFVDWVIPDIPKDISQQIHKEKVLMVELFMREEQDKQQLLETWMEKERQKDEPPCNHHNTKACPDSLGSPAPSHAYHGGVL
# Assay: hsYFP quenching assay in NCL-SG3-hsYFP-TMEM16A(ac) cells
# Format: cell-based
# Conditions: 330 μM ATP; for Effect of pretreatment on hsYFP quenching / Ca^2+-dependent Cl^− secretion after ATP: cells overexpressing TMEM16A(ac)
# Experimental: NCL-SG3-hsYFP, NCL-SG 3-hsYFP-TMEM16A(ac) and NCL-SG3-hsYFP-TMEM16A(acΔe3) cells were untreated (basal activity) or stimulated with ATP (330 μM). Quenching of hsYFP fluorescence was determined. The rate of I^− influx (sec^−1) was calculated from the initial slope of measured hsYFP fluorescence (ΔYFP fluorescence/Δtime) and is a direct measure of CaCC activity. For better comparison fold changes compared to basal activity of parental cells are shown. […] All influx rate differences are higly statistically significant, except the basal influx rate of parental and TMEM16A(ac) overexpressing NCL-SG3-hsYFP cells (Student's t-test, two-tailed; *** p-value<0.0001).
# TMEM16A(ac) and TMEM16A(acΔe3) are present in human eccrine sweat glands and were therefore obtained by RT-PCR amplification using TRIzol® (Invitrogen) extracted RNA from freshly isolated human eccrine sweat glands using oligonucleotides (forward 5′-[…]; reverse 5′-[…]) SEQ ID NOS: 5 and 6 , which amplify full-length TMEM16A, and subsequently cloned into the proprietary eukaryotic gene expression plasmid (pEF1α-TMEM16A(ac) and pEF1α-TMEM16A(acΔe3), FIG. 6A). […] Both genes are coupled by an internal ribosomal entry site (IRES) to enable efficient translation of both open reading frames located on the same mRNA. […]
# Taken together, NCL-SG3-hsYFP cells can be used to monitor Ca^2+-dependent Cl^− fluxes, which represent the initial step in primary sweat formation in sweat gland cells. […] Microplates were transferred into an automated fluorescence plate reader (FlexStation®, Molecular Devices) and cellular hsYFP fluorescence was continuously recorded every 3.5 sec until end of the experiment (excitation at 485 nm, emission at 535 nm, cutoff 515 nm). […] NCL-SG3-hsYFP cells allow quantitative evaluation of in vivo Cl^− channel activity (FIGS. 9 and 10D). To determine the exact rate of Cl^− efflux/I^− influx the hsYFP fluorescence was plotted against time (ΔYFP fluorescence/Δtime). […]
Effect of pretreatment on hsYFP quenching / Ca^2+-dependent Cl^− secretion after ATP,Effect of pretreatment on hsYFP quenching / Ca^2+-dependent Cl^− secretion after ATP (listed as tannic acid),SMILES,"ATP-induced activity (I^− influx rate, fold) (TMEM16A(ac) overexpressing cells)"
,,Nc1ncnc2c1ncn2[C@@H]1O[C@H](COP(=O)(O)OP(=O)(O)OP(=O)(O)O)[C@@H](O)[C@H]1O [ATP],10 fold
significant reduction of hsYFP quenching,inhibited,"O=C(OC[C@H]1O[C@@H](OC(=O)c2cc(O)c(O)c(OC(=O)c3cc(O)c(O)c(O)c3)c2)[C@H](OC(=O)c2cc(O)c(O)c(OC(=O)c3cc(O)c(O)c(O)c3)c2)[C@@H](OC(=O)c2cc(O)c(O)c(OC(=O)c3cc(O)c(O)c(O)c3)c2)[C@@H]1OC(=O)c1cc(O)c(O)c(OC(=O)c2cc(O)c(O)c(O)c2)c1)c1cc(O)c(O)c(OC(=O)c2cc(O)c(O)c(O)c2)c1 [TA, tannic acid]",
